The results in this text go back to patent publication US8349371B2, “Method for anti-oxidation, inhibiting activity and/or expression of matrix metalloproteinase, and/or inhibiting phosphorylation of mitogen-activated protein kinase using neonauclea reticulata leaf extracts” (China Medical University, priority 2010, dated 2013).

Values joined by “and” are separate entries in the source; they are usually repeats but may differ in a detail not shown here. Equal values may be shown once.

Assay [1] deals with MMP-9. The experiment in a line: Inhibition test of matrix metalloproteinase expression in UVB-irradiated fibroblast Hs68 (western blotting): MMP-9. In kind it is cell-based, human. The following applies: expression relative to control group (1.00); UVB 40 mJ/cm^2, Hs68; 10 μg/mL. The method, then: (§1) A total of 5×10^5 fibroblast Hs68 (human foreskin fibroblast, Bioresource Collection and Research Center (BCRC) number:60038, purchased from Food Industry Research and Development Institute (FIRDI)) was counted and cultivated in a culture medium (90% Dulbecco's modified Eagle's medium adjusted with 4 mM of L-glutamine, containing 1.5 g/L NaHCO3, 4.5 g/L glucose, and 10% heat-inactivated fetal bovine serum) with a diameter of 10 cm. After the fibroblast Hs68 grew to a density of 80%, the culture solution was removed, and the cells were rinsed with 5 mL of a phosphate buffer saline (PBS) solution once. Then, 3 mL of a phenol red-free culture solution containing the Neonauclea reticulata leaf water extract with different concentrations ([…]) was added into the culture medium, and was reacted for 1 hour. The cells were placed under ultraviolet light (40 mJ/cm^2, Ultraviolet B (UVB)) for irradiation. […] Using luminescence imaging technology with an associated analysis software and LAS-4000 (FUJIFILM) to record the image, and a quantitative analysis was carried out by multi Gauge […] […]

The subject of assay [2] is MMP-1. The experiment in a line: Inhibition test of matrix metalloproteinase expression in UVB-irradiated fibroblast Hs68 (western blotting): MMP-1. In kind it is cell-based, human. The following applies: expression relative to control group (1.00); UVB 40 mJ/cm^2, Hs68; 10 μg/mL. As to the method:
as §1
Background: Immunoblotting shows a protein as a band on a membrane.

The subject of assay [3] is MMP-3. The assay is described as follows: Inhibition test of matrix metalloproteinase expression in UVB-irradiated fibroblast Hs68 (western blotting): MMP-3. In kind it is cell-based, human. The following applies: expression relative to control group (1.00); UVB 40 mJ/cm^2, Hs68; 10 μg/mL. As to the method:
as §1

Assay [4] can be described thus: Anti-oxidation test: DPPH free radicals removal test. In kind it is biochemical. The settings on record: DPPH scavenging, 50 μg/mL. As to the method:
A 100 μL of the Neonauclea reticulata leaf water extract, methanol extract, or the hydrolytes thereof with different concentrations (10 to 100 μg/mL) and a 100 μL. DPPH solution (200 μM) dissolved in methanol were added in a 96-well microplate, and were mixed evenly and placed under 37° C. away from light for 30 minutes. The absorbance of the mixture was determined by an enzyme immunoassay instrument under a wavelength of 517 nm. In this test, the extract was replaced by 50 vol % propylene glycol as the control group, and ascorbic acid (vitamin C) was used as a positive control group, and DPPH was replaced by methanol for determining the background value. The ability of the Neonauclea reticulata leaf extract to remove free radicals was calculated by the following formula. The results are shown in Table 5 to Table 7 and FIG. 12 to FIG. 14. [formula]
In general terms: Loss of DPPH colour is used to gauge radical scavenging.

The compound `O=C(O[C@@H]1Cc2c(O)cc(O)cc2O[C@@H]1c1cc(O)c(O)c(O)c1)c1cc(O)c(O)c(O)c1` [EGCG] had an MMP-9 in assay [1] of 0.95 ± 0.26. In addition, the MMP-1 in assay [2] came out at 1.10 ± 0.15. In addition, the MMP-3 in assay [3] is recorded as 1.15 ± 0.16.

For `O=C1O[C@H]([C@@H](O)CO)C(O)=C1O` [Vitamin C, ascorbic acid], the Inhibition in assay [4] (Table 5) is listed as 98.60 ± 0.32. In addition, the “Inhibition Rate” value in assay [4] (Tables 6 and 7) is 88.36 ± 2.71 and 97.99 ± 0.12.
